What was measured:
Assay type in all cases: biochemical
Details in all cases: Table 6; enzyme inhibition data (Ki)
JAK2 = JAK2 (Homo sapiens, UniProt O60674); test: JAK2 inhibition assay (as Example 3 with JAK-2 enzyme)
Outline: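 Radiometric JAK2 kinase assay: poly(Glu)4Tyr substrate at final 15 μM, ATP at final 12 μM with [33P]; buffer 100 mM HEPES pH 7.4, 1 mM DTT, 10 mM MgCl2, 25 mM NaCl, 0.01% BSA. 20 min at 25 °C, TCA-stopped, 33P incorporation counted after filter capture.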

JAK3 = biological target: T1, JAK3 (Homo sapiens, UniProt P52333); test: JAK3 inhibition assay (33P incorporation into poly(Glu)4Tyr)
T1 sequence (P52333 1-1124): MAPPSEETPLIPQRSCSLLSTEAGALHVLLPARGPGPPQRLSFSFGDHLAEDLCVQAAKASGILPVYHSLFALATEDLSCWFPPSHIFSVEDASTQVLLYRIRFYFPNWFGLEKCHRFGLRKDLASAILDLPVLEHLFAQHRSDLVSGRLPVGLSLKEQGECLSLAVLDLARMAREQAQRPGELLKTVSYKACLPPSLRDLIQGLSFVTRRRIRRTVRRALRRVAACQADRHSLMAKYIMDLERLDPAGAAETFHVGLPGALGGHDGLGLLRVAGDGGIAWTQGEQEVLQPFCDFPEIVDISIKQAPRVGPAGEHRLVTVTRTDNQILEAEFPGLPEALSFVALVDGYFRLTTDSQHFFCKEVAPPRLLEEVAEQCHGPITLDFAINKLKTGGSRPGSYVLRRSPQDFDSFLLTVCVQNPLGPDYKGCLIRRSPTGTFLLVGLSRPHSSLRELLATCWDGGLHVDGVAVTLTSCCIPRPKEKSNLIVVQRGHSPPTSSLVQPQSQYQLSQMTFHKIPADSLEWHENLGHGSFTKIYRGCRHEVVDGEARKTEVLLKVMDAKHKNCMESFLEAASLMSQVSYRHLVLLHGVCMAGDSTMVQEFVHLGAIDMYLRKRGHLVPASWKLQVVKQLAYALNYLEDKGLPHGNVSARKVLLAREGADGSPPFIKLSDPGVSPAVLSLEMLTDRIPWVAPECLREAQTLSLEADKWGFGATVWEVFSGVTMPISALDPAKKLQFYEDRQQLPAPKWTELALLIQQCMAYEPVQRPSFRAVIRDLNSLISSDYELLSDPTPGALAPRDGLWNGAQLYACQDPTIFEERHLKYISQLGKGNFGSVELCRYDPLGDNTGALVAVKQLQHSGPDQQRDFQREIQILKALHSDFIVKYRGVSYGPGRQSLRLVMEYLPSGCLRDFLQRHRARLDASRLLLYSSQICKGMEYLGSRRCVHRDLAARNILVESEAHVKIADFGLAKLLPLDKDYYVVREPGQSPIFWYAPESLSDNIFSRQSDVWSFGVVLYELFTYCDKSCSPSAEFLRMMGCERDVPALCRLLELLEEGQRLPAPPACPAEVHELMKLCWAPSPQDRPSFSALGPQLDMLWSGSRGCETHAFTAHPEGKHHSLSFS
Outline: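 Human JAK3 at 1 nM phosphorylated 1 μM poly(Glu)4Tyr using 5 μM [33P]ATP in HEPES pH 7.4 buffer with MgCl2, DTT and BSA. Reactions ran 20 min at 25° C. and were stopped with TCA. 33P incorporation was measured by scintillation after glass-fiber filter capture.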

ROCK I = ROCK I (Homo sapiens, UniProt Q13464); test: ROCK-I inhibition assay (radioactive enzyme assay, MBP substrate)
ROCK I, sequence (Q13464 whole entry): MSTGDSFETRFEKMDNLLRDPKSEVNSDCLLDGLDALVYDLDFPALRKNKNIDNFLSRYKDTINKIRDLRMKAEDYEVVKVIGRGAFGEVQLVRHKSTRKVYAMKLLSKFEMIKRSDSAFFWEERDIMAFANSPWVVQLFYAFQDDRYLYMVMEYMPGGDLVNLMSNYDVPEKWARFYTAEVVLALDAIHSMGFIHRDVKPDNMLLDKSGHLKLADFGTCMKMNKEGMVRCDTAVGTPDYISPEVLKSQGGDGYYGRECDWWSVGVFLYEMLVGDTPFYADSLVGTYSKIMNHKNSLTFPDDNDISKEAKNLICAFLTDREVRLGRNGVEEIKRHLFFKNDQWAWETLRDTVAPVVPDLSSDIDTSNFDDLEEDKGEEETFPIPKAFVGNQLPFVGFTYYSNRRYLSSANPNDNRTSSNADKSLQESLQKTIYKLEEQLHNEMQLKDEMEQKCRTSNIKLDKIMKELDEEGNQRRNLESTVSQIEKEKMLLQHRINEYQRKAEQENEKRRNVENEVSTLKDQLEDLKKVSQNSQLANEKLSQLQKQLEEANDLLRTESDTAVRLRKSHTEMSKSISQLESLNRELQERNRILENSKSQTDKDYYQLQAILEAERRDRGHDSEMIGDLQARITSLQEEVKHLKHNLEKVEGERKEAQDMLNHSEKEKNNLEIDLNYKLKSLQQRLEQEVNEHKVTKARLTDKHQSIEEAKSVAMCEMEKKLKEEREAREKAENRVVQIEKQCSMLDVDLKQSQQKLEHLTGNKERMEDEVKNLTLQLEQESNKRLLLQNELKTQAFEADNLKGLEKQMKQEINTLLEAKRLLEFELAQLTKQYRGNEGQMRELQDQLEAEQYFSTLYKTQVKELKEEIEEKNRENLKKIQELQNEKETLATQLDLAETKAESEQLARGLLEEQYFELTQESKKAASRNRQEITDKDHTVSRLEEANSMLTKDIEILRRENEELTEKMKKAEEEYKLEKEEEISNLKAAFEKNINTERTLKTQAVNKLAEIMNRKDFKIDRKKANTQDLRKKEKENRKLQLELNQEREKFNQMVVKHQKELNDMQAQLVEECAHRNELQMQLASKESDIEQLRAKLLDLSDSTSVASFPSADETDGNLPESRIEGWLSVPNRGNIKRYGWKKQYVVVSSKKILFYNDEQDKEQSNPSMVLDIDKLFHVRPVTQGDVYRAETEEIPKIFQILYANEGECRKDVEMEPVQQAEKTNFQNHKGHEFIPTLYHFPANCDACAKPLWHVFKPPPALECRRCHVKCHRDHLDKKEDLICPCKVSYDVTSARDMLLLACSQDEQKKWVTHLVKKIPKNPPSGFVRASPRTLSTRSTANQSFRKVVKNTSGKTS
Outline: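 Human ROCK at 5 nM phosphorylated 27 μM myelin basic protein with 13 μM [γ-33P]ATP (final) in HEPES pH 7.5, MgCl2, NaCl, DTT and 1.5% DMSO. Reactions ran 2 h at room temperature before TCA quench and filter-plate scintillation counting. After background subtraction, data were fit to give Ki(app).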

JAK2, sequence (O60674 whole entry): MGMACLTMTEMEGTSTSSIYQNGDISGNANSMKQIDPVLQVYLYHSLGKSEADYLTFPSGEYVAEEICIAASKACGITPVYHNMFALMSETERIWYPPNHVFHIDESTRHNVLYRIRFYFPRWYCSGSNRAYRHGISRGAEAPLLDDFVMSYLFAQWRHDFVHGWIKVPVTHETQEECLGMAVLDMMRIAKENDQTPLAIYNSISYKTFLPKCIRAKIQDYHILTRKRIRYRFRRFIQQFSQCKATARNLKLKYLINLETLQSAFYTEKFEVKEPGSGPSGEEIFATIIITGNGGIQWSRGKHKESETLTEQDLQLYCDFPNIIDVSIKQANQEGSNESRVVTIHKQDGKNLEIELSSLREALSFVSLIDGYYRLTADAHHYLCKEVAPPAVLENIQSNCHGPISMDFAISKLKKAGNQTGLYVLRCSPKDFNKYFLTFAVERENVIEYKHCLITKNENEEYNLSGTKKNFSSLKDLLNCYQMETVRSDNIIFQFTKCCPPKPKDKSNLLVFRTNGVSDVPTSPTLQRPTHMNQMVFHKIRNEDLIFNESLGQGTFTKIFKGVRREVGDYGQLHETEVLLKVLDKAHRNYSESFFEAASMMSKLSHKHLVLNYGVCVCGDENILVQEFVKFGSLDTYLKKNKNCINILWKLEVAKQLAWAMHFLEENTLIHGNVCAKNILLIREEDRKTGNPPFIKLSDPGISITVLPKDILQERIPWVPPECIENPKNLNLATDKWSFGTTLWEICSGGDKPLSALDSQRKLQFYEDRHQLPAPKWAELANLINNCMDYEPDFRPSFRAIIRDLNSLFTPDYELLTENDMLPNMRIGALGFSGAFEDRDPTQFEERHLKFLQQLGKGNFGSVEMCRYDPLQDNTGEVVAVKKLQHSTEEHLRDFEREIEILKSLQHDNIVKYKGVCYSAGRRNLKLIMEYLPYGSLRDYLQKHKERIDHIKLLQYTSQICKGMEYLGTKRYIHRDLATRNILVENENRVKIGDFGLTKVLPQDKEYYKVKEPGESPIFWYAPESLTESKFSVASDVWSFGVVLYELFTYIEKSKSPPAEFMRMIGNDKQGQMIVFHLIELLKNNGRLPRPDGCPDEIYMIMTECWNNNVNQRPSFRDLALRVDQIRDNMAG

Row | SMILES | Ki (JAK2) | Ki (JAK3) | Ki (ROCK I)
1 | O=C(c1cc(-c2ccnc3[nH]ccc23)c[nH]1)N1CCCC(O)C1 (stereo not drawn) [compound 372] | 500 to 5000 nM | 500 to 5000 nM | 500 to 5000 nM
2 | N#CC1CCCN1C(=O)c1cc(-c2ccnc3[nH]ccc23)c[nH]1 (stereo not drawn) [compound 373] | < 500 nM | < 500 nM | < 500 nM
3 | O=C(c1cc(-c2ccnc3[nH]ccc23)c[nH]1)N1CCCC1C(F)(F)F (stereo not drawn) [compound 374] | < 500 nM | < 500 nM | < 500 nM
4 | CC1CCC(C)N1C(=O)c1cc(-c2ccnc3[nH]ccc23)c[nH]1 (stereo not drawn) [compound 375] | < 500 nM | < 500 nM | < 500 nM
5 | CN(CC(F)(F)F)C(=O)c1cc(-c2ccnc3[nH]ccc23)c[nH]1 [compound 376] | < 500 nM | < 500 nM | < 500 nM
6 | O=C(c1cc(-c2ccnc3[nH]ccc23)c[nH]1)N1CCC(O)C1 (stereo not drawn) [compound 377] | 500 to 5000 nM | 500 to 5000 nM | < 500 nM
7 | CC(C)CC(=O)Nc1nc(-c2ccnc3[nH]ccc23)cs1 [compound 378] | < 500 nM | < 500 nM | < 500 nM
8 | O=C(CC1CCCC1)Nc1nc(-c2ccnc3[nH]ccc23)cs1 [compound 379] | < 500 nM | < 500 nM | < 500 nM
9 | NC(=O)c1ccccc1-c1ccnc2[nH]ccc12 [compound 380] | > 5000 nM | > 5000 nM | > 4000 nM
10 | CNc1ccccc1-c1ccnc2[nH]ccc12 [compound 381] | 500 to 5000 nM | 500 to 5000 nM | > 4000 nM
11 | Fc1cnc2[nH]ccc2c1-c1ccc(CN(CCC(F)(F)F)CC2CC2)o1 [compound 382] | < 500 nM | < 500 nM | 500 to 5000 nM
12 | C=CCN(CC=C)C(=O)c1cc(-c2c(F)cnc3[nH]ccc23)c[nH]1 [compound 383] | < 500 nM | < 500 nM | 500 to 5000 nM
13 | N#CCCN(CCC(F)(F)F)C(=O)c1cc(-c2c(F)cnc3[nH]ccc23)c[nH]1 [compound 384] | < 500 nM | < 500 nM | 500 to 5000 nM
14 | C=CCN(C(=O)c1cc(-c2c(F)cnc3[nH]ccc23)c[nH]1)C(C)c1ccccc1 (stereo not drawn) [compound 385] | < 500 nM | < 500 nM | 500 to 5000 nM
15 | CN(CCC#N)C(=O)c1cc(-c2c(F)cnc3[nH]ccc23)c[nH]1 [compound 386] | < 500 nM | < 500 nM | 500 to 5000 nM
16 | O=C(c1cc(-c2c(F)cnc3[nH]ccc23)c[nH]1)N(CC1CC1)CC(F)(F)F [compound 387] | < 500 nM | < 500 nM | < 500 nM
17 | CCCN(CC(F)(F)F)C(=O)c1cc(-c2c(F)cnc3[nH]ccc23)c[nH]1 [compound 388] | < 500 nM | < 500 nM | < 500 nM
18 | O=C(c1cc(-c2c(F)cnc3[nH]ccc23)c[nH]1)N(CCC(F)(F)F)Cc1ccccc1 [compound 389] | < 500 nM | < 500 nM | 500 to 5000 nM
19 | O=C(c1cc(-c2c(F)cnc3[nH]ccc23)c[nH]1)N(CCC(F)(F)F)CC1CC1 [compound 390] | < 500 nM | < 500 nM | 500 to 5000 nM
20 | N#CCN(Cc1ccccc1)C(=O)c1cc(-c2c(F)cnc3[nH]ccc23)c[nH]1 [compound 391] | < 500 nM | < 500 nM | < 500 nM
21 | CCCN(CC1CC1)C(=O)c1cc(-c2c(F)cnc3[nH]ccc23)c[nH]1 [compound 392] | < 500 nM | < 500 nM | 500 to 5000 nM
22 | CN(CC(F)(F)F)C(=O)c1cc(-c2c(F)cnc3[nH]ccc23)c[nH]1 [compound 393] | < 500 nM | < 500 nM | < 500 nM
23 | N#CCCN(Cc1ccccc1)C(=O)c1cc(-c2c(F)cnc3[nH]ccc23)c[nH]1 [compound 394] | < 500 nM | < 500 nM | < 500 nM

Row | SMILES | Ki (JAK2) | Ki (JAK3) | Ki (ROCK I)
24 | CCN(Cc1ccccc1)C(=O)c1cc(-c2c(F)cnc3[nH]ccc23)c[nH]1 [compound 395] | < 500 nM | < 500 nM | 500 to 5000 nM
25 | CCCN(CCC#N)C(=O)c1cc(-c2c(F)cnc3[nH]ccc23)c[nH]1 [compound 396] | < 500 nM | < 500 nM | < 500 nM
26 | CCCCN(CCC#N)C(=O)c1cc(-c2c(F)cnc3[nH]ccc23)c[nH]1 [compound 397] | < 500 nM | < 500 nM | < 500 nM
27 | N#CCCN(CC1CC1)C(=O)c1cc(-c2c(F)cnc3[nH]ccc23)c[nH]1 [compound 398] | < 500 nM | < 500 nM | < 500 nM
28 | N#CCN(Cc1cccc(Cl)c1)C(=O)c1cc(-c2c(F)cnc3[nH]ccc23)c[nH]1 [compound 399] | < 500 nM | < 500 nM | < 500 nM
29 | N#CCN(Cc1ccc(F)cc1)C(=O)c1cc(-c2c(F)cnc3[nH]ccc23)c[nH]1 [compound 400] | < 500 nM | < 500 nM | < 500 nM
30 | C=CCN(CC=C)C(=O)c1csc(-c2ccnc3[nH]ccc23)n1 [compound 401] | < 500 nM | < 500 nM | < 500 nM
31 | O=C(c1csc(-c2ccnc3[nH]ccc23)n1)N(CCC(F)(F)F)CC1CC1 [compound 402] | < 500 nM | < 500 nM | < 500 nM
32 | N#CCCN(CC(F)(F)F)C(=O)c1csc(-c2ccnc3[nH]ccc23)n1 [compound 403] | < 500 nM | < 500 nM | < 500 nM
33 | CCN(Cc1ccccc1)C(=O)c1csc(-c2ccnc3[nH]ccc23)n1 [compound 404] | < 500 nM | < 500 nM | < 500 nM
34 | N#CCCN(CCC(F)(F)F)C(=O)c1csc(-c2ccnc3[nH]ccc23)n1 [compound 405, 2-(1H-Pyrrolo[2,3-b]pyridin-4-yl)-thiazole-4-carboxylic acid (2-cyano-ethyl)-(3,3,3-trifluoro-propyl)-amide] | < 500 nM | < 500 nM | < 500 nM
35 | O=C(c1csc(-c2ccnc3[nH]ccc23)n1)N(CC1CC1)CC(F)(F)F [compound 406] | < 500 nM | < 500 nM | < 500 nM
36 | CCCN(CC(F)(F)F)C(=O)c1csc(-c2ccnc3[nH]ccc23)n1 [compound 407] | < 500 nM | < 500 nM | < 500 nM
37 | C=CCN(C(=O)c1csc(-c2ccnc3[nH]ccc23)n1)[C@@H](C)c1ccccc1 [compound 408] | < 500 nM | < 500 nM | < 500 nM
38 | N#CCCN(CC1CC1)C(=O)c1csc(-c2ccnc3[nH]ccc23)n1 [compound 409] | < 500 nM | < 500 nM | < 500 nM
39 | C=CCN(C(=O)c1csc(-c2ccnc3[nH]ccc23)n1)C1CCCC1 [compound 410] | < 500 nM | < 500 nM | < 500 nM
40 | O=C(c1csc(-c2ccnc3[nH]ccc23)n1)N1CCC(CO)CC1 [compound 411] | 500 to 5000 nM | 500 to 5000 nM | 500 to 5000 nM
41 | O=C(NCC1CC1)c1csc(-c2ccnc3[nH]ccc23)n1 [compound 412] | < 500 nM | < 500 nM | 500 to 5000 nM
42 | CC(C)CCNC(=O)c1csc(-c2ccnc3[nH]ccc23)n1 [compound 413] | < 500 nM | 500 to 5000 nM | 500 to 5000 nM
43 | CC1CC[C@@H](C)N1C(=O)c1csc(-c2ccnc3[nH]ccc23)n1 (stereo partly drawn) [compound 414] | < 500 nM | < 500 nM | < 500 nM
44 | O=C(c1csc(-c2ccnc3[nH]ccc23)n1)N1CC=CC1 [compound 415] | < 500 nM | 500 to 5000 nM | < 500 nM
45 | C[C@@H]1CC[C@@H](C)N1C(=O)c1csc(-c2ccnc3[nH]ccc23)n1 [compound 416] | < 500 nM | < 500 nM | < 500 nM
